PMC8350397, “GSK137, a potent small-molecule BCL6 inhibitor with in vivo activity, suppresses antibody responses in mice” (The Journal of Biological Chemistry, 2021)
Entries after “also recorded” stand apart in the source; their conditions may differ.

Assays:
[1] = target: T1, human BCL6 BTB-POZ domain (SMRT co-repressor peptide) (Homo sapiens, UniProt P41182, C67R/C84N/C8Q); test: BCL6 TR-FRET assay, SMRT peptide displacement; assay type: binding
T1 construct: BCL6-Flag-6H-Avi (5-129) C8Q, C67R, C84N proteins; Flag (C); 6H (His6) (C); made in house; host or cells: E. coli
Protocol: Human, mouse and rat BCL6-Flag-6H-Avi (5-129) C8Q, C67R, C84N proteins were expressed in E. coli according to standard procedures and purified on Ni-NTA, followed by ion exchange on a Source 30Q column and size exclusion on an Superdex 200 column in a buffer of 20 mM Tris, 250 mM NaCl, 5 mM DTT, 5% glycerol, pH 8.5. All protein purities were estimated to be >90% by SDS-PAGE and the expected masses were confirmed by MS analysis. For TR-FRET assay protein was enzymatically biotinylated by treatment of protein at 100 µM with a 2 fold molar excess of biotin in the presence of 2 mM ATP and 1 µM BirA enzyme in a buffer of 50 mM bicine pH 8.3, 10 mM MgCl2 at 30 °C for 1 hour, followed by extensivedialysis against 50 mM Tris-Cl pH 8.0, 100 mM NaCl, 1 mM DTT using a 3.5 kDa cut-off membrane. Biotinylation was confirmed by MS analysis and concentration was determined by Bradford assay, after which protein was stored in aliquots at -80 °C.
Acceptor-labelled SMRT peptide H2N-[…](D2)-OH was dissolved in water by mass to give a 500 µM stock solution which was stored at -20 °C. Acceptor-labelled NCOR peptide H2N-[…](Alexa Fluor 647)-OH and acceptor-labelled BCOR peptide H2N-[…](Alexa Fluor 647)-OH were dissolved to a nominal concentration of 1 mM in DMSO, and stock solution concentration was determined by absorbance at 650 nm using an extinction coefficient of 270,000 M-1cm^-1. […]

[2] = target: T2, BCL6 in Farage DLBCL cells (Homo sapiens, UniProt P41182); test: Western blot for BCL6 protein degradation; assay type: cell-based; details: 1 μM for 24 h
T2 construct: endogenous in cells; host or cells: Farage DLBCL cells
Protocol: Cell pellets were lysed in RIPA buffer containing protease/phosphatase inhibitor cocktail and benzonase, protein concentration determined and samples prepared in reducing conditions and 20 µg of protein loaded per lane. Proteins were then transferred onto a nitrocellulose membrane and probed with rabbit BCL6 antibody (Abcam, Cambridge, UK; ab33901) and mouse GAPDH antibody (Abcam; ab9484) at 1:2000 dilution overnight at 4°C. Blots were probed for 1 hour at room temperature with secondary antibodies (goat anti-rabbit LI-COR, 926-32211 and goat anti-mouse LI-COR, 926-68070) at 1:10,000 dilution). Images were obtained on a LI-COR Odyssey CLx Infrared Imaging System using Image Studio software (Version 5.2).

[3] = tested on: Farage, Karpas422 and VAL cells; test: Viability and cumulative cell number analysis, Farage, Karpas422, VAL; assay type: cell-based; details: 14 days
Protocol: Farage cells were cultured in RPMI1640 (1×) + 20% heat-inactivated fetal bovine serum (FBS), ULA in Iscove's modified Dulbecco's medium + 20% FBS, whereas Karpas422 and VAL were cultured in RPMI1640 + 20% heat-inactivated FBS, all with the addition of 1% Glutamax and 1% sodium pyruvate.
Farage, ULA, Karpas422, and VAL cells were seeded into T25 tissue culture flasks in a total volume of 7 mL per flask at densities of 5 x10^4, 7 x10^4, 5 x10^4, and 4 x10^4 cells/mL, respectively and incubated overnight at 37 °C and 5% CO2. Cells were then treated with a 3-point titration of GSK137 (0.1 µM, 1 µM, and 10 µM) throughout a 14-day time course. Treatments with multiple concentrations of BI3802 were also included for comparison (Farage and Karpas422 cells were treated with 0.01 µM, 0.1 µM, and 1 µM BI3802; ULA cells were treated with 0.1 µM and 1 µM BI3802; VAL cells were treated with 0.1 µM, 1 µM, and 10 µM BI3802). Viability (trypan blue exlcusion) and cumulative cell number were measured on a Vi-CELL XR 2.03 (Beckman Coulter, Brea, CA, USA) on day of seeding and on days 3, 6, 10, and 14.

SMILES | activity in cell-free assay compared with reported potency ([1]; cell-free) | degradation of intracellular BCL6 protein [2] | cumulative cell number [3] | IC50 ([1]; from pIC50 = 8, read-out: affinity for the BCL6 BTB-POZ domain) | cell viability ([3]; GSK137 0.1-10 μM)
CNC(=O)COc1cc2cc(Nc3nc(N4C[C@H](C)C[C@H](C)C4)ncc3Cl)ccc2n(C)c1=O [BI3802, reference compound] | consistent with the previously reported potency | degraded BCL6 | showed some response |  | 
Cc1ncccc1[C@H]1C[C@@H](c2cccc3nc(N)ccc23)Nc2c(F)cnn21 [GSK137, 5-((5S,7R)-3-Fluoro-7-(2-methylpyridin-3-yl)-4,5,6,7-tetrahydropyrazolo[1,5-a]pyrimidin-5-yl)quinolin-2-amine] |  | did not show this activity | no detectable change | 10 nM | no major change in cell viability; also recorded: no detectable change
